Assay: xn = mol fraction of the nth substance listed
Settings: Liquid, Vibrating tube method

CCCCn1cc[n+](C)c1.F[B-](F)(F)F [1-butyl-3-methylimidazolium tetrafluoroborate] + CCO
Settings	mass density [kg/m3]
298.15 K, 120 kPa, x1 = 0.9152	1199.7
298.15 K, 180 kPa, x1 = 0.7452	1171.71
298.15 K, 210 kPa, x1 = 0.5384	1124.67
298.15 K, 280 kPa, x1 = 1	1211.19
298.15 K, 340 kPa, x1 = 0.3147	1044.49
298.15 K, 390 kPa, x1 = 0.0701	875.91
298.15 K, 4960 kPa, x1 = 0.7452	1174.16
298.15 K, 5040 kPa, x1 = 0.5384	1127.45
298.15 K, 5140 kPa, x1 = 0.9152	1202.06
298.15 K, 5500 kPa, x1 = 0.0701	880.04
298.15 K, 5630 kPa, x1 = 0.3147	1048.05
298.15 K, 5640 kPa, x1 = 1	1213.63
298.15 K, 10030 kPa, x1 = 0.9152	1204.31
298.15 K, 10060 kPa, x1 = 0.7452	1176.71
298.15 K, 10260 kPa, x1 = 0.5384	1130.36
298.15 K, 10620 kPa, x1 = 1	1215.85
298.15 K, 10910 kPa, x1 = 0.3147	1051.47
298.15 K, 11370 kPa, x1 = 0.0701	884.58
298.15 K, 15130 kPa, x1 = 0.0701	887.37
298.15 K, 15210 kPa, x1 = 0.7452	1179.21
298.15 K, 15280 kPa, x1 = 0.3147	1054.2
298.15 K, 15320 kPa, x1 = 0.5384	1133.1
298.15 K, 15340 kPa, x1 = 1	1217.77
298.15 K, 15620 kPa, x1 = 0.9152	1206.82
298.15 K, 20090 kPa, x1 = 0.5384	1135.59
298.15 K, 20360 kPa, x1 = 0.7452	1181.64
298.15 K, 20480 kPa, x1 = 0.9152	1208.95
298.15 K, 20540 kPa, x1 = 0.3147	1057.36
298.15 K, 20640 kPa, x1 = 1	1220.29
298.15 K, 21070 kPa, x1 = 0.0701	891.6
298.15 K, 25270 kPa, x1 = 1	1222.18
298.15 K, 25410 kPa, x1 = 0.7452	1183.95
298.15 K, 25470 kPa, x1 = 0.3147	1060.21
298.15 K, 25570 kPa, x1 = 0.0701	894.66
298.15 K, 26070 kPa, x1 = 0.5384	1138.61
298.15 K, 26140 kPa, x1 = 0.9152	1211.36
298.15 K, 29870 kPa, x1 = 0.9152	1212.91
298.15 K, 30050 kPa, x1 = 1	1223.93
298.15 K, 30070 kPa, x1 = 0.5384	1140.56
298.15 K, 30090 kPa, x1 = 0.7452	1186.03
298.15 K, 30620 kPa, x1 = 0.0701	897.94
298.15 K, 31120 kPa, x1 = 0.3147	1063.34
298.15 K, 35410 kPa, x1 = 0.5384	1143.07
298.15 K, 35410 kPa, x1 = 1	1226.07
298.15 K, 35480 kPa, x1 = 0.7452	1188.36
298.15 K, 35740 kPa, x1 = 0.9152	1215.3
298.15 K, 35800 kPa, x1 = 0.3147	1065.82
298.15 K, 35860 kPa, x1 = 0.0701	901.17
298.15 K, 39340 kPa, x1 = 0.0701	903.23
298.15 K, 39610 kPa, x1 = 1	1227.81
298.15 K, 39770 kPa, x1 = 0.3147	1067.84
298.15 K, 39920 kPa, x1 = 0.7452	1190.22
298.15 K, 39980 kPa, x1 = 0.5384	1145.14
298.15 K, 39980 kPa, x1 = 0.9152	1216.97
323.15 K, 290 kPa, x1 = 0.0701	856.52
323.15 K, 340 kPa, x1 = 0.3147	1026.83
323.15 K, 420 kPa, x1 = 0.7452	1153.47
323.15 K, 510 kPa, x1 = 0.9152	1181.35
323.15 K, 730 kPa, x1 = 1	1192.89
323.15 K, 850 kPa, x1 = 0.5384	1106.94
323.15 K, 4870 kPa, x1 = 0.9152	1183.6
323.15 K, 4890 kPa, x1 = 0.5384	1109.43
323.15 K, 5010 kPa, x1 = 0.3147	1030.15
323.15 K, 5060 kPa, x1 = 0.7452	1156.05
323.15 K, 5410 kPa, x1 = 0.0701	861.09
323.15 K, 5640 kPa, x1 = 1	1195.3
323.15 K, 9860 kPa, x1 = 0.5384	1112.4
323.15 K, 10080 kPa, x1 = 0.9152	1186.23
323.15 K, 10110 kPa, x1 = 0.3147	1033.63
323.15 K, 10610 kPa, x1 = 1	1197.71
323.15 K, 10730 kPa, x1 = 0.0701	865.61
323.15 K, 10740 kPa, x1 = 0.7452	1159.11
323.15 K, 14870 kPa, x1 = 0.5384	1115.29
323.15 K, 15080 kPa, x1 = 0.7452	1161.39
323.15 K, 15210 kPa, x1 = 0.9152	1188.77
323.15 K, 15410 kPa, x1 = 0.3147	1037.07
323.15 K, 15430 kPa, x1 = 0.0701	869.4
323.15 K, 15440 kPa, x1 = 1	1200.01
323.15 K, 20160 kPa, x1 = 0.5384	1118.22
323.15 K, 20310 kPa, x1 = 0.7452	1164.06
323.15 K, 20330 kPa, x1 = 0.0701	873.16
323.15 K, 20460 kPa, x1 = 1	1202.37
323.15 K, 20470 kPa, x1 = 0.9152	1191.31
323.15 K, 20750 kPa, x1 = 0.3147	1040.38
323.15 K, 25010 kPa, x1 = 0.9152	1193.45
323.15 K, 25120 kPa, x1 = 0.7452	1166.45
323.15 K, 25360 kPa, x1 = 1	1204.64
323.15 K, 25380 kPa, x1 = 0.0701	876.83
323.15 K, 25840 kPa, x1 = 0.5384	1121.23
323.15 K, 26290 kPa, x1 = 0.3147	1043.62
323.15 K, 30070 kPa, x1 = 0.9152	1195.79
323.15 K, 30080 kPa, x1 = 0.7452	1168.84
323.15 K, 30260 kPa, x1 = 0.5384	1123.49
323.15 K, 30330 kPa, x1 = 0.0701	880.21
323.15 K, 30640 kPa, x1 = 0.3147	1046.04
323.15 K, 30740 kPa, x1 = 1	1207.09
323.15 K, 34740 kPa, x1 = 0.0701	883.06
323.15 K, 34960 kPa, x1 = 0.9152	1198
323.15 K, 35070 kPa, x1 = 0.7452	1171.16
323.15 K, 35260 kPa, x1 = 0.3147	1048.48
323.15 K, 35420 kPa, x1 = 0.5384	1126.01
323.15 K, 35650 kPa, x1 = 1	1209.29
323.15 K, 39850 kPa, x1 = 1	1211.14
323.15 K, 40000 kPa, x1 = 0.9152	1200.22
323.15 K, 40010 kPa, x1 = 0.0701	886.25
323.15 K, 40010 kPa, x1 = 0.7452	1173.4
323.15 K, 40020 kPa, x1 = 0.5384	1128.17
323.15 K, 40120 kPa, x1 = 0.3147	1050.91
348.15 K, 210 kPa, x1 = 1	1174.44
348.15 K, 230 kPa, x1 = 0.3147	1007.5
348.15 K, 380 kPa, x1 = 0.7452	1134.96
348.15 K, 450 kPa, x1 = 0.5384	1088.13
348.15 K, 460 kPa, x1 = 0.9152	1163.17
348.15 K, 520 kPa, x1 = 0.0701	835.75
348.15 K, 5010 kPa, x1 = 0.5384	1091.32
348.15 K, 5040 kPa, x1 = 0.9152	1165.81
348.15 K, 5340 kPa, x1 = 0.0701	840.67
348.15 K, 5360 kPa, x1 = 0.7452	1138.08
348.15 K, 5740 kPa, x1 = 0.3147	1011.89
348.15 K, 5960 kPa, x1 = 1	1177.75
348.15 K, 10060 kPa, x1 = 0.5384	1094.71
348.15 K, 10090 kPa, x1 = 0.7452	1140.95
348.15 K, 10480 kPa, x1 = 1	1180.3
348.15 K, 11210 kPa, x1 = 0.9152	1169.27
348.15 K, 11420 kPa, x1 = 0.3147	1016.16
348.15 K, 11710 kPa, x1 = 0.0701	846.75
348.15 K, 15080 kPa, x1 = 0.9152	1171.38
348.15 K, 15210 kPa, x1 = 0.5384	1098.01
348.15 K, 15420 kPa, x1 = 0.7452	1144.07
348.15 K, 15430 kPa, x1 = 1	1182.72
348.15 K, 15740 kPa, x1 = 0.3147	1019.22
348.15 K, 15840 kPa, x1 = 0.0701	850.45
348.15 K, 20060 kPa, x1 = 0.5384	1100.98
348.15 K, 20080 kPa, x1 = 0.7452	1146.71
348.15 K, 20550 kPa, x1 = 0.0701	854.43

From the NIST ThermoML archive (doi:10.1007/s10765-008-0410-4)
